{"source": "patent US20140349957A1", "about": "“Compositions for Photodynamic Therapy Chemically Modified to Increase Epithelia Penetration and Cellular Bioavailability” (YAGNA LIMITED, priority 2011, published 2014)", "origin": "cited, not measured here", "system": "cells which have incorporated the drug", "data": [{"smiles": "Cc1cn([C@H]2C[C@H](O)[C@@H](CO)O2)c(=O)[nH]c1=S", "note": "[4 thiothymidine, 4-thiothymidine]", "values": [{"measurement": "toxicity of exposure to drug alone", "setting": "drug alone, no UV-A", "value": "does not result in appreciable toxicity"}, {"measurement": "toxicity to cells upon excitation", "setting": "excitation at 335 nm (UV-A)", "value": "results in toxicity to the cells which have incorporated the drug"}]}]}
